A short description of this series: Plasma pharmacokinetics of ropivacaine in sciatic nerve blockade model. The format is in vivo, Sprague-Dawley rats. The text has this:
Male Sprague-Dawley rats, approximately 400-500 g in weight, were anesthetized with 3-5% isoflurane and maintained as required. The left hind leg was shaved, cleaned twice with iodine and 70% ethanol, and a sterile drape placed over the animal to create a sterile field. An incision was made in the skin and the sciatic nerve exposed using a blunt dissection. The treatment was applied, the muscle and incision closed with sutures, and animals allowed to recover under a heat lamp. Controls were injected with vehicle only (i.e. HAMC) or ropivacaine in solution.
Blood samples were taken from the tail veins and quantified using mass-spectrometry. All extractions and mass-spectrometry was carried out by the Analytical Facility for Bioactive Molecules (The Hospital for Sick Children, Toronto, Canada).
To gain insight into the pharmacokinetics of ropivacaine released from HAMC, the sciatic nerve block procedure was performed as described. Animals were treated with ropivacaine-loaded 1.4:3 HAMC at doses of 30, 60, 90 or 120 mg/kg of particulate ropivacaine (<100 μm). Control animals received HAMC alone or ropivacaine in solution at 24 mg/kg. Each animal received approximately 400 μL of treatment. For the HAMC groups, blood was sampled by tail vein puncture at 2 h, 4 h, 6 h, 12 h, 20 h, 30 h, 48 h and 72 h. […]
All statistical analyses were performed using GraphPad Prism (GraphPad Software 6, San Diego, CA, USA). Differences among 4 groups were assessed by one-way ANOVA followed by either Dunnett's or Tukey's multiple comparisons test to identify statistical significance. […] The area under the curve (AUC) was calculated for each HAMC-ropivacaine pharmacokinetic profile, and the subsequent AUC vs HAMC-ropivacaine relationship was fit to a linear regression.
A pharmacokinetics study was performed to evaluate the systemic plasma distribution of ropivacaine when delivered either from HAMC or as bolus liquid solution. […] Blood was sampled by tail vein puncture over time, and the amount of ropivacaine was quantified by LC-MS/MS.

The mark [1] stands for this setting: Sprague-Dawley, rat, plasma, 24 mg/kg at left sciatic nerve, male rats.

SMILES strings stand for the structures. Counter-ions that a name gives are not always drawn.

What is called Cmax is the highest concentration seen after dosing. As a reminder, the Tmax is the time at which the peak concentration occurs. As for `CCCN1CCCC[C@H]1C(=O)Nc1c(C)cccc1C` [ropivacaine solution, ropivacaine·HCl], the plasma levels result (24 mg/kg, by 24 h) is “negligible plasma levels”. In addition, under setting [1], the concentration peaked (Cmax) at 1000 ng/mL and the Tmax was 1 h.

(Values after patent US12419878B2, “Sustained release local anesthetic hydrogel composition” (THE GOVERNING COUNCIL OF THE UNIVERSITY OF TORONTO, priority 2019, dated 2025).)
